Test results published in patent publication US9624286B2, “Composition comprising peptide derived from adiponectin” (KNU-INDUSTRY COOPERATION FOUNDATION, priority 2013, dated 2017).

Tests used:
[1] = test system: NIH3T3 cells; test: Tests for facilitating the proliferation of mouse fibroblast cell line NIH3T3 (CCK-8); format: cell-based; conditions: peptide 10 μM; 24, 48 and 72 hours; CCK-8 absorbance at 475 nm; FIG. 1
Experimental: The NIH3T3 cells (mouse fibroblast cell line, ATCC CRL-1658, USA), along with 100 μl of Dulbecco's Modified Eagle medium (DMEM), were added to each well of the 96-well microplate in the concentration of 5×10^3 cells per well, and then cultured in a 5% CO2 incubator at 37° C. for 24 hours. The peptide solutions (100 μl) having the respective peptide of SEQ ID NOs: 1, 2, 3 and 5 in the concentration of 10 μM were added to each well. While incubating the cells for 24, 48, and 72 hours therefrom, 10 μl of CCK-8 (Dojindo Laboratories, Japan) was added to each well and then the respective absorbance at 475 nm was measured with Spectramax plus 190 plate reader (Molecular Devices, USA).

[2] = test system: procollagen type-1; test: Activation of the procollagen type-1 expression in fibroblasts (Western blotting); format: cell-based, mouse; conditions: NIH3T3 cells, peptide 0.1, 1 and 10 μM, 48 hours, concentration-dependent, FIG. 2
Experimental: Since facilitation of the collagen fiber synthesis is one of the principal means for inhibiting skin aging, we evaluate whether the collagen synthesis in fibroblasts is facilitated by the treatment of the peptides of the present invention, using the NIH3T3 cells (mouse fibroblast cell line, ATCC CRL-1658, USA). The fibroblasts were treated with the peptides of SEQ ID NOs: 1, 2, 3 and 5, in the concentrations of 0.1, 1 and 10 μM, respectively. After 48 hours, the cell extracts were subject to the Western blotting assay so as to measure the expressions of procollagen type-1. […] Therefore, it can be seen that the peptides of the present invention can inhibit skin aging derived from loss of collagen, especially skin wrinkle.

[3] = test system: profilaggrin; test: Control of the profilaggrin expression in human keratinocyte cell line HaCaT (Western blotting); format: cell-based; conditions: HaCaT cells, peptide 0.1, 1.0 and 10 μM, 48 hours, concentration-dependent, FIG. 3
Experimental: Since profilaggrin is one of the principal elements for constituting skin barrier, we evaluate whether the profilaggrin synthesis in keratinocytes is facilitated by the treatment of the peptides of the present invention, using the HaCaT cells (human keratinocyte cell line, DKFZ, Heidelberg, Germany). The HaCaT cells were treated with the peptides of SEQ ID NOs: 3 and 5, in the concentrations of 0.1, 1.0 and 10 μM. After 48 hours, the cell extracts were subject to the Western blotting assay so as to measure the expressions of profilaggrin. […] Therefore, it can be seen that the peptides of the present invention have a skin-moisturizing activity through facilitating the profilaggrin expression.

Substance	proliferations of NIH3T3 cells [1]	expressions of procollagen type-1 [2]	expressions of profilaggrin [3]
His-Ile-Thr (HIT; Peptide fragment) [SEQ ID NO: 2, adiponectin-derived peptide fragment]	significantly increased	increased	–
Leu-Phe-Thr-Tyr-Asp (LFTYD; Peptide fragment) [SEQ ID NO: 3, adiponectin-derived peptide fragment]	significantly increased	increased	increased
Phe-Thr-Tyr (FTY; Peptide fragment) [SEQ ID NO: 5, adiponectin-derived peptide fragment]	significantly increased	increased	increased
Tyr-His-Ile-Thr (YHIT; Peptide fragment) [SEQ ID NO: 1, adiponectin-derived peptide fragment]	significantly increased	increased	–
